# Test results as given in patent US7220587B2 (priority 2001, dated 2007).
# How the values were obtained:
# [1] = test system: ein6/een mutant seedlings; experiment: taxol treatment of dark-grown ein6/een double mutant seedlings; assay type: in vivo, Arabidopsis thaliana
# Description: (§1) The role of ethylene in the reduction of hypocotyl and root elongation has not yet been elucidated. One possibility relates to the theory that cortical microtubules associated with the plasma membrane may direct the cellulose synthase complex that is responsible for cell wall deposition. The drug taxol acts to stabilize microtubules by inhibiting microtubule depolymerization (Schiff and Horwitz 1981) and may inhibit the shift in cortical microtubules upon ethylene treatment,(Heinstein and Chang 1994). To determine if taxol could affect the ethylene insensitivity phenotype of ein6/een mutants, wild-type and ein6/een mutants were given a 10 day taxol treatment in the dark (Example 12).
# (§2) Wild-type Landsberg seedlings or ein6/een mutant seedlings were grown in the presence of either 0 μM, 0.1 μM, or 1 μM taxol for 10 days in the dark, following the method of Roman and Ecker (Phil. Trans. R. Soc. Lond. B. 350: 75–81, 1995, which is herein incorporated by reference in its entirety). […] Hypocotyl cells of the taxol-treated tissue appeared shorter and rounder than wild-type cells. […] From these observations, it has been concluded that the ein6/een double mutation, (or possibly the een single mutation) is responsible for the taxol sensitivity phenotype.
# [2] = test system: Wild-type Landsberg seedlings; experiment: taxol treatment of dark-grown wild-type seedlings; assay type: in vivo, Arabidopsis thaliana; details: 10 days in the dark
# Description: as §1, §2
smiles,measurement,setting,value
CC(=O)O[C@H]1C(=O)[C@@]2(C)[C@H]([C@H](OC(=O)c3ccccc3)[C@]3(O)C[C@H](OC(=O)[C@H](O)[C@@H](NC(=O)c4ccccc4)c4ccccc4)C(C)=C1C3(C)C)[C@]1(OC(C)=O)CO[C@@H]1C[C@@H]2O [taxol],seedling phenotype (length),"[1]; 0.1 μM taxol, 10 days in the dark",shortened phenotype
same,seedling length compared to non-treated ein6/een mutant seedlings,"[1]; 1 μM taxol, 10 days in the dark",significantly shorter
same,sensitivity of mutants to taxol,"[1]; low levels (0.1 μM) of taxol, 10 day treatment in the dark",especially sensitive
same,seedling size compared to untreated seedlings,[2]; 0.1 μM taxol,did not have an altered size
same,effect on seedling elongation,[2]; 1 μM taxol,inhibition of elongation
